Measured values as given in patent US4558066A, “Treatment and prevention of ocular hypertension” (priority 1984, dated 1985).
Structures can show the parent of a compound that is named as a salt.

Tests used:
intraocular pressure [1] = assay: Reduction of intraocular pressure in rabbits (pneuma-tonometer); type: in vivo, normal albino white New Zealand rabbits; details: rabbit
Method: Two groups of normal albino white New Zealand rabbits were used for this study.
Experimental group: 8 animals
At time 0, intraocular pressure of both eyes of each animal in control and experimental groups was determined.
All animals received the treatment either with saline (control group) or the tested compound (experimental group) immediately after 0 hour intraocular pressure reading. Control group received 50 μl of vehicle in both eyes. Experimental animals received 50 μl of vehicle in the left eyes and 50 μl of 1% solution of tested compound in the right eyes.
Intraocular pressure was measured at 30 minutes, 1, 2, and 4 hours.
The effects of tested drug on intraocular pressure of the rabbit was determined using a Digilab Model 30D pneuma-tonometer. Initial IOP readings were obtained in all animals after the administration of 50 μl of 0.5% Opthaine (proparacaine hydrochloride). A group of 4 rabbits served as controls and were treated with 50 μl of saline in both eyes. Eight additional rabbits received 50 μl of test drug in the right eye, and 50 μl of drug vehicle was administered in the contralateral left eye. IOP readings were made 30 minutes, 1 hours, 2 hours, and 4 hours after drug administration.
This procedure permitted the comparison of drug treated eye with the contralateral vehicle treated eye, and also with saline treated eye. For purposes of statistical analysis comparisons were made between the drug treated IOP values and vehicle treated contralateral eyes and also the saline treated IOP values.

eye = tested on: eye; set-up: species or system mongrel dogs; details: dog, in vivo
intraocular pressure [2] = assay: Intraocular pressure in anesthetized dogs after ocular administration; type: in vivo, mongrel dogs; details: anesthetized dog
Method: (§1) In the present studies, the cardiovascular and intraocular pressure effects of Timoptic (Timolol) a Merck β-blocker marketed for treatment of glaucoma, and ±2-[(3,4-methylenedioxy)phenethyl]-5-[(3-carboxamido-4-hydroxy)-α-hydroxybenzyl]pyrrolidine were evaluated in anesthetized dogs to determine if the compounds exert systemic effects after ocular administration.
(§2) Mongrel dogs were anesthetized with sodium pentobarbital (36 mg/kg, i.v.). The trachea was intubated and the dog respired with room air if necessary (20 cc/kg, 16x/min). A femoral vein was cannulated for injection of drugs and a femoral artery for measurement of systolic blood pressure. Heart rate was recorded by a cardiotachometer triggered by the R-wave of a limb lead II ECG. Intraocular pressure measurements were made with a Digilab model 30-D Pneuma-Tonometer.
(§3) Timolol and ±2-[(3,4-methylenedioxy)phenethyl]-5-[(3-carboxamido-4-hydroxy)-α-hydroxybenzyl]pyrrolidine were dissolved in distilled water. Isoproterenol and norepinephrine were dissolved in normal saline.
(§4) Isoproterenol was administered i.v. at half-log interval doses from 0.0158 μg/kg to 0.5 μg/kg.

isoproterenol responses = tested on: isoproterenol responses; set-up: species or system mongrel dogs; details: dog, in vivo
Method: as §1, §2, §3, §4

norepinephrine responses = tested on: norepinephrine responses; set-up: species or system mongrel dogs; details: dog, in vivo
Method: as §1, §2, §3, §4

[3] = set-up: species or system mongrel dogs; details: dog, in vivo
Method: as §1, §2, §3, §4

[4] = cited from earlier work
[5] = topical; PDR; cited from earlier work
[6] = administered to the eye at 0.5, 1 and 2%

**Q.** What does the source list for NC(=O)c1cc(C(O)C2CCC(CCc3ccc4c(c3)OCO4)N2)ccc1O (racemic) [±2-[(3,4-methylenedioxy)phenethyl]-5-[(3-carboxamido-4-hydroxy)-α-hydroxybenzyl]pyrrolidine]?
**A.** Intraocular pressure, Experimental O.D. (right, treated eye) (intraocular pressure [1]; 0 time reading before dosing of 50 μl of 1% solution (baseline), control O.D. 18.8, contralateral vehicle eye 18): 17.6 mmHg; Effect on intraocular pressure in right (treated) eyes (intraocular pressure [1]; 1% solution): decreased significantly intraocular pressure; Intraocular pressure, Experimental O.D. (right, treated eye) (intraocular pressure [1]; 50 μl of 1% solution, 30 min, control O.D. 18.3, contralateral vehicle eye 18.1): 18.9 mmHg; Intraocular pressure, Experimental O.D. (right, treated eye) (intraocular pressure [1]; 50 μl of 1% solution, 1 hour, control O.D. 19.5, contralateral vehicle eye 19.8): 17.1 mmHg; Intraocular pressure, Experimental O.D. (right, treated eye) (intraocular pressure [1]; 50 μl of 1% solution, 2 hours, control O.D. 19.8, contralateral vehicle eye 17.3): 14.4 mmHg; Intraocular pressure, Experimental O.D. (right, treated eye) (intraocular pressure [1]; 50 μl of 1% solution, 4 hours, control O.D. 19.8, contralateral vehicle eye 18.8): 15.5 mmHg; Eye irritation (eye): no irritation to the eye; Decrease of IOP relative to Timolol (intraocular pressure [2]; [6]): to a lesser extent than Timolol; Effect on intraocular pressure (intraocular pressure [2]; [6]): decreased IOP; Effect on intraocular pressure (conclusion) (intraocular pressure [2]; at the doses tested): lowered intraocular pressure; Dose relation of inhibition of isoproterenol responses (isoproterenol responses): not dose related; Inhibition of isoproterenol responses (isoproterenol responses): some inhibition; Dose relation of inhibition of norepinephrine responses (norepinephrine responses): not dose related; Inhibition of norepinephrine responses (norepinephrine responses): some inhibition; Baseline blood pressure compared with control dogs [3]: differed little from control dogs; Baseline heart rate compared with control dogs [3]: differed little from control dogs; Systemic effect (conclusion) [3]: modest, if any systemic effect

**Q.** What does the source list for CC(C)(C)NC[C@H](O)COc1nsnc1N1CCOCC1 [Timolol]?
**A.** Effect on intraocular pressure (intraocular pressure [2]; administered to the eye at 0.5%): significant decreases in intraocular pressure; Effect on cardiac failure ([4]; congestive heart failure patients, ocular application): intensify cardiac failure in congestive heart failure patients; Systemic absorption after ocular application ([4]; human, in vivo): absorbed systemically after ocular application; Effect on bronchospasm ([4]; patients suffering from brochospastic disorders, ocular application): brochospasm in patients suffering from brochospastic disorders; Inhibition of i.v. (systemic) isoproterenol challenges (isoproterenol responses): markedly inhibited; Systemic absorption following ocular administration (indicated by inhibition of isoproterenol challenges) (isoproterenol responses): readily absorbed systemically following ocular administration; Effect on baseline blood pressure [3]: marked decreases; Effect on baseline heart rate [3]: marked decreases; Time post-dose to nadir of blood pressure [3]: ≤ 90 min; Time post-dose to nadir of heart rate [3]: ≤ 90 min

**Q.** For CC(C)(C)NC[C@H](O)COc1nsnc1N1CCOCC1 [timolol maleate], which “Systemic side effects when applied topically” value [5] is on record?
**A.** Its value is “can cause bronchospastic disease, bradyarrhythmia, cardiogenic shock, cardiac failure, etc”.
